Assay: in vitro
Settings: human, hela cells, % viability

Row | SMILES | viability at 28.5 h, 10 µM [%]
1 | Cc1cc(NC(=O)c2ccc(S(=O)(=O)N3CCOCC3)cc2)nc2c1c(=O)oc1ccccc12 [CBK291134] | 106
2 | COc1ccc2c(c1)C(=O)NC1(CC2)CCN(Cc2ccccc2)C1 (stereo not drawn) [CBK283343] | 95.2
3 | Oc1ccccc1CN1CCN(Cc2ccccc2O)C1c1ccccc1Br [CBK262050] | 98.1
4 | CC(=O)Nc1cc2ccccc2nc1C1CCN(C(=O)C(C)C)CC1 [CBK285259] | 83.7
5 | Cc1cc2ccccc2n1CC(=O)N1CCn2cnnc2C1 [CBK282209] | 108
6 | CN1C[C@@H](C(=O)N2CCCCCC2)[C@@]2(CCc3ccccc3C2=O)C1 [CBK284590] | 87
7 | CC1(CNC(=O)c2cn3cc(Cl)ccc3n2)COC1 [CBK281748] | 91.4
8 | C/C(=N\OCC(=O)N(Cc1ccccc1)c1ccccc1C(=O)O)c1cccs1 [CBK077414] | 94.2
9 | NC(=O)CN1CC2(CCN(Cc3cccc4cccnc34)CC2)c2ccccc21 [CBK137021] | 123
10 | Cc1nc(NC(=O)Cn2nc(N3CCSCC3)ccc2=O)sc1C [CBK307622] | 98.3
11 | CCCS(=O)(=O)N1CCN(S(=O)(=O)c2ccc(NC(C)=O)cc2)CC1 [CBK264288] | 96.6
12 | CCn1cc(CN(CCCn2ccnc2)Cc2cccc(F)c2)cn1 [CBK283124] | 107
13 | O=[N+]([O-])c1ccc2c(c1)C=C1CCCCC1(NCc1ccccc1)O2 (stereo not drawn) [CBK262716] | 98.8
14 | CC1CC1C(=O)NCCN1CCC(O)(c2cccc(F)c2)CC1 (stereo not drawn) [CBK283286] | 84.4
15 | COc1ccccc1-c1cnc(N)c(NC2CCOCC2)n1 [CBK063853] | 104
16 | CCC1CCCCN1C(=O)c1sc(C)nc1C (stereo not drawn) [CBK089359] | 105
17 | COc1ccc(OC)c(C(O)CN2CCCC(C(=O)N3CCCCCC3)C2)c1 (stereo not drawn) [CBK286286] | 87.5
18 | CN(C)c1ccc(NC(=O)C(Cc2ccccc2)N2C(=O)c3ccccc3C2=O)cc1 (stereo not drawn) [CBK262413] | 99.6

Row | SMILES | viability at 28.5 h, 10 µM [%]
19 | CC(C)[C@H]1CN(Cc2ccco2)CCN1C(=O)N1CCCCC1 [CBK284272] | 87.6
20 | OC(c1ccc2c(c1)OCO2)C1CCCCC1N1CCCCCC1 (stereo not drawn) [CBK022779C] | 100
21 | COCc1nnc(NS(=O)(=O)c2ccc(C)cc2)s1 [CBK045523] | 86.7
22 | COc1ccc(-c2cnc(N)c(-c3ccc(F)c(Cl)c3)n2)cn1 [CBK063966] | 111
23 | CCc1cc2cc3c(cc2nc1SCC(=O)Nc1cc(OC)ccc1OC)OCO3 [CBK108546] | 91.8
24 | COCCN(Cc1cnn(C)c1)C(=O)Nc1cccc2nc(C)ccc12 [CBK306529] | 106
25 | CC1CCc2c(sc(NC(=O)c3cc(-c4cccnc4)nc4ccc(Cl)cc34)c2C(N)=O)C1 (stereo not drawn) [CBK267762] | 104
26 | Brc1ccc(-n2cnnn2)cc1 [CBK027696] | 110
27 | O=C(c1cc(C2CCCN(Cc3ccccc3)C2)no1)N1CCCC1 (stereo not drawn) [CBK283395] | 89.7
28 | CCOC(=O)C(CNC(=O)c1c(CC)noc1C)Cc1ccccc1 (stereo not drawn) [CBK305961] | 90.8
29 | O=C1COc2ccccc2C/C=C/CC2(CCN(C(=O)c3cncc(O)c3)CC2)C(=O)NCCN1 [CBK291989] | 98.3
30 | CCCC(=O)N1C2CCC1c1cnc3cc(-c4ccco4)nn3c1C2 (stereo not drawn) [CBK284383] | 96.6
31 | C(=C\c1nccnc1OCCc1c[nH]c2ccccc12)/c1ccccc1 [CBK106872] | 91.7
32 | Cc1cc(NC(=O)C(C)SCc2cccc(C(F)(F)F)c2)no1 (stereo not drawn) [CBK306233] | 95.5
33 | COc1ccc(C(C)c2cc3c(cc2OC)OCO3)c(F)c1 (stereo not drawn) [CBK200112] | 53.3
34 | O=C(O)c1snnc1-c1ccccc1 [CBK021545] | 90.9
35 | CS(=O)(=O)N1CC2(CCN(CCc3ccc(F)cc3)CC2)c2ccccc21 [CBK084103] | 93.3
36 | Cc1ccc(C(=O)Nc2ccccc2C(=O)O)cc1S(=O)(=O)NCc1ccccc1 [CBK263212] | 98.7

From publication PMC12040169 (PLOS Biology, 2025)
